In PubChem BioAssay (NCI):
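Where inhibition never reached the appropriate level, the endpoint shown equals the highest concentration tested. Otherwise, values were interpolated linearly from a five-concentration, 48-hour dose response in 96-well plates. TGI is the concentration that stops growth completely.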

Columns and labels:
Experiment in all cases: NCI tumour cell line growth inhibition, 48 h
[1] = test system: 786-0 renal
[2] = test system: A498 renal
[3] = test system: A549 NSCLC
[4] = test system: ACHN renal
[5] = test system: CAKI-1 renal
[6] = test system: CCRF-CEM leukemia
[7] = test system: COLO 205 colon
[8] = test system: DLD-1 colon
[9] = test system: DMS 114 small cell lung
[10] = test system: DMS 273 small cell lung
[11] = test system: EKVX NSCLC
[12] = test system: HCC-2998 colon
[13] = test system: HCT-116 colon
[14] = test system: HCT-15 colon
[15] = test system: HL-60(TB) leukemia
[16] = test system: HOP-18 NSCLC
[17] = test system: HOP-62 NSCLC
[18] = test system: HOP-92 NSCLC
[19] = test system: HT29 colon
[20] = test system: IGROV1 ovarian
[21] = test system: K-562 leukemia
[22] = test system: KM12 colon
[23] = test system: KM20L2 colon
[24] = test system: LOX IMVI melanoma
[25] = test system: LXFL 529 NSCLC
[26] = test system: M14 melanoma
[27] = test system: M19-MEL melanoma
[28] = test system: MALME-3M melanoma
[29] = test system: MOLT-4 leukemia
[30] = test system: NCI-H226 lung
[31] = test system: NCI-H23 lung
[32] = test system: NCI-H460 lung
[33] = test system: NCI-H522 lung
[34] = test system: OVCAR-3 ovarian
[35] = test system: OVCAR-4 ovarian
[36] = test system: OVCAR-5 ovarian
[37] = test system: OVCAR-8 ovarian
[38] = test system: RPMI-8226 leukemia
[39] = test system: RXF 393 renal
[40] = test system: RXF-631 renal
[41] = test system: SF-268 CNS
[42] = test system: SF-295 CNS
[43] = test system: SF-539 CNS
[44] = test system: SK-MEL-2 melanoma
[45] = test system: SK-MEL-28 melanoma
[46] = test system: SK-MEL-5 melanoma
[47] = test system: SK-OV-3 ovarian
[48] = test system: SN12C renal
[49] = test system: SNB-19 CNS
[50] = test system: SNB-75 CNS
[51] = test system: SNB-78 CNS
[52] = test system: SR leukemia
[53] = test system: SW-620 colon
[54] = test system: TK-10 renal
[55] = test system: U251 CNS
[56] = test system: UACC-257 melanoma
[57] = test system: UACC-62 melanoma
[58] = test system: UO-31 renal
[59] = test system: XF 498 CNS

`C[C@]12CCc3nonc3C1CC[C@@H]1C2CC[C@]2(C)C(=O)/C(=N\O)CC12` (some centres undefined) was tested, and the TGI [1] was over 100 µM, the TGI [2] was over 100 µM and the TGI [3] was over 100 µM. The TGI [4] was over 100 µM, the TGI [5] was over 100 µM and the TGI [6] was over 100 µM. It also gave a TGI [7] of over 100 µM, a TGI [8] of over 100 µM and a TGI [9] of over 100 µM. For the same compound, the TGI [10] was over 100 µM, the TGI [11] was over 100 µM and the TGI [12] was over 100 µM. It also gave a TGI [13] of over 100 µM, a TGI [14] of over 100 µM and a TGI [15] of 3.69 µM. For the same compound, the TGI [16] was over 100 µM, the TGI [17] was over 100 µM and the TGI [18] was over 100 µM. The TGI [19] was over 100 µM, the TGI [20] was over 100 µM and the TGI [21] was over 100 µM. The TGI [22] was over 100 µM, the TGI [23] was over 100 µM and the TGI [24] was over 100 µM. It also gave a TGI [25] of over 100 µM, a TGI [26] of over 100 µM and a TGI [27] of over 100 µM. It also gave a TGI [28] of over 100 µM, a TGI [29] of over 100 µM and a TGI [30] of over 100 µM. For the same compound, the TGI [31] was over 100 µM, the TGI [32] was over 100 µM and the TGI [33] was 32 µM. It also gave a TGI [34] of over 100 µM, a TGI [35] of over 100 µM and a TGI [36] of over 100 µM. For the same compound, the TGI [37] was over 100 µM, the TGI [38] was over 100 µM and the TGI [39] was over 100 µM. It also gave a TGI [40] of over 100 µM, a TGI [41] of over 100 µM and a TGI [42] of over 100 µM. It also gave a TGI [43] of over 100 µM, a TGI [44] of over 100 µM and a TGI [45] of over 100 µM. The TGI [46] was over 100 µM, the TGI [47] was over 100 µM and the TGI [48] was over 100 µM. For the same compound, the TGI [49] was over 100 µM, the TGI [50] was over 100 µM and the TGI [51] was over 100 µM. The TGI [52] was over 100 µM, the TGI [53] was over 100 µM and the TGI [54] was over 100 µM. The TGI [55] was over 100 µM, the TGI [56] was over 100 µM and the TGI [57] was over 100 µM. It also gave a TGI [58] of over 100 µM and a TGI [59] of over 100 µM.
